{"source": "paper PMC12196486", "about": "“Search for Antiviral Preparations in Series of New Derivatives of N-Substituted Piperidines” (Molecules, 2025)", "key": {"[1]": {"tested_on": "influenza A/Swine/Iowa/30 (H1N1) virus", "type": "cell-based", "settings": "for Antiviral activity relative to oseltamivir (Tamiflu): concentrations corresponding to 1/2 of CC50; for Efficacy relative to commercially available oseltamivir: at similar or lower concentrations"}, "[2]": {"assay": "Cytotoxicity in vitro, MTT test on MDCK cell culture", "settings": "dog"}, "in vitro": {"assay": "in vitro", "settings": "dog"}}, "note": "Entries after “also recorded” stand apart in the source; their conditions may differ. Where a name gives a salt, the structure may show the parent alone. Read-outs that look alike come from different tables or passages of the source."}
{"smiles": "CCCN1CCC(O)(C(=O)O)CC1", "note": "[3b, Hydrochloride of 1-propyl-4-carboxy-4-hydroxypiperidine]", "values": [{"measurement": "Titre in HAU", "setting": "[1]; 0.15 mg/mL, PC titre 5.0 ± 0", "value": "5.0 ± 0", "unit": "log2"}, {"measurement": "Titre in HAU", "setting": "[1]; 0.30 mg/mL, PC titre 5.0 ± 0", "value": "5.0 ± 0", "unit": "log2"}, {"measurement": "Titre in HAU", "setting": "[1]; 0.59 mg/mL, PC titre 5.0 ± 0", "value": "5.0 ± 0", "unit": "log2"}, {"measurement": "Titre in HAU", "setting": "[1]; 1.19 mg/mL, PC titre 5.0 ± 0", "value": "5.0 ± 0", "unit": "log2"}, {"measurement": "Titre in HAU", "setting": "[1]; 2.38 mg/mL, PC titre 5.0 ± 0", "value": "4.4 ± 0.6", "unit": "log2"}, {"measurement": "Reduction of virus replication", "setting": "[1]; 4.75 mg/mL (maximum tested concentration)", "value": 1.0, "unit": "log2"}, {"measurement": "Titre in HAU", "setting": "[1]; 4.75 mg/mL, PC titre 5.0 ± 0", "value": "4.0 ± 0", "unit": "log2"}, {"measurement": "Antiviral activity relative to oseltamivir (Tamiflu)", "setting": "[1]", "value": "slightly inferior; also recorded: significantly lower antiviral activity"}, {"measurement": "CC50 at 72 h", "setting": "[2]", "value": "9500 ± 364", "unit": "µg/mL"}]}
{"smiles": "O=C(OC1(C(=O)O)CCN(Cc2ccccc2)CC1)C1CC1", "note": "[5c, Hydrochloride of 1-benzyl-4-cyclopropanoyloxy-piperidine-4-carboxylic acid]", "values": [{"measurement": "Titre in HAU", "setting": "[1]; 0.058 mg/mL, PC titre 5.0 ± 0", "value": "5.0 ± 0", "unit": "log2"}, {"measurement": "Titre in HAU", "setting": "[1]; 0.116 mg/mL, PC titre 5.0 ± 0", "value": "5.0 ± 0", "unit": "log2"}, {"measurement": "Titre in HAU", "setting": "[1]; 0.231 mg/mL, PC titre 5.0 ± 0", "value": "5.0 ± 0", "unit": "log2"}, {"measurement": "Titre in HAU", "setting": "[1]; 0.463 mg/mL, PC titre 5.0 ± 0", "value": "5.0 ± 0", "unit": "log2"}, {"measurement": "Titre in HAU", "setting": "[1]; 0.925 mg/mL, PC titre 5.0 ± 0", "value": "4.4 ± 0.6", "unit": "log2"}, {"measurement": "Suppression of virus replication compared to the control group", "setting": "[1]; 1.85 mg/mL (maximum investigated concentration)", "value": 1.2, "unit": "log2"}, {"measurement": "Titre in HAU", "setting": "[1]; 1.850 mg/mL, PC titre 5.0 ± 0", "value": "3.8 ± 1.1", "unit": "log2"}, {"measurement": "Antiviral effect at the other concentrations tested", "setting": "[1]; concentrations below 1.85 mg/mL", "value": "No statistically significant antiviral effect"}, {"measurement": "Level of antiviral activity relative to rimantadine", "setting": "[1]; concentrations equivalent to 1/2 CC50", "value": "comparable to that of rimantadine"}, {"measurement": "CC50 at 72 h", "setting": "[2]", "value": "3700 ± 189", "unit": "µg/mL"}]}
{"smiles": "O=C(OC1(C(=O)O)CCN(CCc2ccccc2)CC1)C1CC1", "note": "[5d, Hydrochloride of 1-(2-phenylethyl)-4-cyclopropanoyloxy-piperidine-4-carboxylic acid]", "values": [{"measurement": "Titre in HAU", "setting": "[1]; 0.0025 mg/mL, PC titre 6.0 ± 0", "value": "6.0 ± 0", "unit": "log2"}, {"measurement": "Titre in HAU", "setting": "[1]; 0.0050 mg/mL, PC titre 6.0 ± 0", "value": "6.0 ± 0", "unit": "log2"}, {"measurement": "Titre in HAU", "setting": "[1]; 0.0100 mg/mL, PC titre 6.0 ± 0", "value": "6.0 ± 0", "unit": "log2"}, {"measurement": "Titre in HAU", "setting": "[1]; 0.0200 mg/mL, PC titre 6.0 ± 0", "value": "6.0 ± 0", "unit": "log2"}, {"measurement": "Reduction of virus replication", "setting": "[1]; 0.04 mg/mL", "value": 1.2, "unit": "log2"}, {"measurement": "Titre in HAU", "setting": "[1]; 0.0400 mg/mL, PC titre 6.0 ± 0", "value": "4.8 ± 0.5", "unit": "log2"}, {"measurement": "Reduction of virus replication", "setting": "[1]; 0.08 mg/mL", "value": 2.0, "unit": "log2"}, {"measurement": "Titre in HAU", "setting": "[1]; 0.0800 mg/mL, PC titre 6.0 ± 0", "value": "4.0 ± 0", "unit": "log2"}, {"measurement": "Antiviral activity relative to oseltamivir (Tamiflu)", "setting": "[1]", "value": "slightly inferior"}, {"measurement": "CC50 at 72 h", "setting": "[2]", "value": "160 ± 6", "unit": "µg/mL"}]}
{"smiles": "CC(N)C12CC3CC(CC(C3)C1)C2", "note": "(stereo not shown) [Rimantadine, reference compound]", "values": [{"measurement": "Titre in HAU", "setting": "[1]; 0.003 mg/mL, PC titre 6.0 ± 0", "value": "4.2 ± 0.4", "unit": "log2"}, {"measurement": "Titre in HAU", "setting": "[1]; 0.005 mg/mL, PC titre 6.0 ± 0", "value": "4.2 ± 0.4", "unit": "log2"}, {"measurement": "Titre in HAU", "setting": "[1]; 0.010 mg/mL, PC titre 6.0 ± 0", "value": "4.2 ± 0.4", "unit": "log2"}, {"measurement": "Titre in HAU", "setting": "[1]; 0.020 mg/mL, PC titre 6.0 ± 0", "value": "4.2 ± 0.4", "unit": "log2"}, {"measurement": "Titre in HAU", "setting": "[1]; 0.040 mg/mL, PC titre 6.0 ± 0", "value": "4.2 ± 0.4", "unit": "log2"}, {"measurement": "Titre in HAU", "setting": "[1]; 0.080 mg/mL, PC titre 6.0 ± 0", "value": "4.2 ± 0.4", "unit": "log2"}, {"measurement": "CC50 at 72 h", "setting": "in vitro", "value": "160 ± 11", "unit": "µg/mL"}]}
{"smiles": "CCOC(=O)C1=C[C@@H](OC(CC)CC)[C@H](NC(C)=O)[C@@H](N)C1", "note": "[Tamiflu, oseltamivir, reference compound]", "values": [{"measurement": "Titre in HAU", "setting": "[1]; 0.01 mg/mL, PC titre 5.0 ± 0", "value": "4.0 ± 0", "unit": "log2"}, {"measurement": "Titre in HAU", "setting": "[1]; 0.02 mg/mL, PC titre 5.0 ± 0", "value": "4.0 ± 0", "unit": "log2"}, {"measurement": "Titre in HAU", "setting": "[1]; 0.04 mg/mL, PC titre 5.0 ± 0", "value": "3.0 ± 0", "unit": "log2"}, {"measurement": "Titre in HAU", "setting": "[1]; 0.08 mg/mL, PC titre 5.0 ± 0", "value": "3.0 ± 0", "unit": "log2"}, {"measurement": "Titre in HAU", "setting": "[1]; 0.17 mg/mL, PC titre 5.0 ± 0", "value": "2.4 ± 0.5", "unit": "log2"}, {"measurement": "Titre in HAU", "setting": "[1]; 0.33 mg/mL, PC titre 5.0 ± 0", "value": "2.4 ± 0.5", "unit": "log2"}, {"measurement": "Reduction of viral load", "setting": "[1]; 0.02 and 0.01 mg/mL", "value": 1.0, "unit": "log2"}, {"measurement": "Reduction of viral load", "setting": "[1]; 0.08 and 0.04 mg/mL", "value": 2.0, "unit": "log2"}, {"measurement": "Reduction in the reproduction of 100 infectious doses of the virus", "setting": "[1]; 0.33 and 0.17 mg/mL", "value": 2.6, "unit": "log2"}, {"measurement": "CC50 at 72 h", "setting": "[2]", "value": "660 ± 91", "unit": "µg/mL"}]}
{"smiles": "O=C(OC1CCN(Cc2ccccc2)CC1)c1ccc(C(F)(F)F)cc1", "note": "[compound 8, Hydrochloride of 1-benzyl-4-trifluoromethylbenzoyloxy-piperidine]", "values": [{"measurement": "Titre in HAU", "setting": "[1]; 0.0011 mg/mL, PC titre 6.0 ± 0", "value": "6.0 ± 0", "unit": "log2"}, {"measurement": "Titre in HAU", "setting": "[1]; 0.0022 mg/mL, PC titre 6.0 ± 0", "value": "6.0 ± 0", "unit": "log2"}, {"measurement": "Titre in HAU", "setting": "[1]; 0.0044 mg/mL, PC titre 6.0 ± 0", "value": "6.0 ± 0", "unit": "log2"}, {"measurement": "Titre in HAU", "setting": "[1]; 0.0088 mg/mL, PC titre 6.0 ± 0", "value": "5.0 ± 0", "unit": "log2"}, {"measurement": "Titre in HAU", "setting": "[1]; 0.0175 mg/mL, PC titre 6.0 ± 0", "value": "5.0 ± 0", "unit": "log2"}, {"measurement": "Reduction of viral load", "setting": "[1]; 0.035 mg/mL", "value": 2.0, "unit": "log2"}, {"measurement": "Titre in HAU", "setting": "[1]; 0.0350 mg/mL, PC titre 6.0 ± 0", "value": "4.0 ± 0", "unit": "log2"}, {"measurement": "Reduction of viral load", "setting": "[1]; 0.0175 and 0.0088 mg/mL", "value": 1.0, "unit": "log2"}, {"measurement": "Efficacy relative to commercially available oseltamivir", "setting": "[1]", "value": "comparable efficacy"}, {"measurement": "Antiviral activity relative to oseltamivir (Tamiflu)", "setting": "[1]", "value": "slightly inferior"}, {"measurement": "CC50 at 72 h", "setting": "[2]", "value": "70 ± 5", "unit": "µg/mL"}]}
{"smiles": "O=C(ON=C1CCN(Cc2ccccc2)CC1)c1c(F)cccc1F", "note": "[compound 11, Hydrochloride of 1-benzyl-4-(2,6-difluoro-benzoyloxymino) piperidine]", "values": [{"measurement": "Titre in HAU", "setting": "[1]; 0.0020 mg/mL, PC titre 6.0 ± 0", "value": "6.0 ± 0", "unit": "log2"}, {"measurement": "Titre in HAU", "setting": "[1]; 0.0041 mg/mL, PC titre 6.0 ± 0", "value": "6.0 ± 0", "unit": "log2"}, {"measurement": "Titre in HAU", "setting": "[1]; 0.0081 mg/mL, PC titre 6.0 ± 0", "value": "6.0 ± 0", "unit": "log2"}, {"measurement": "Titre in HAU", "setting": "[1]; 0.0163 mg/mL, PC titre 6.0 ± 0", "value": "6.0 ± 0", "unit": "log2"}, {"measurement": "Titre in HAU", "setting": "[1]; 0.0325 mg/mL, PC titre 6.0 ± 0", "value": "4.0 ± 0", "unit": "log2"}, {"measurement": "Titre in HAU", "setting": "[1]; 0.0650 mg/mL, PC titre 6.0 ± 0", "value": "4.0 ± 0", "unit": "log2"}, {"measurement": "Inhibition of replication of 100 infectious doses compared to the control group", "setting": "[1]; 0.0650 and 0.0325 mg/mL", "value": 2.0, "unit": "log2"}, {"measurement": "Efficacy relative to commercially available oseltamivir", "setting": "[1]", "value": "comparable efficacy"}, {"measurement": "Antiviral activity relative to oseltamivir (Tamiflu)", "setting": "[1]", "value": "slightly inferior"}, {"measurement": "CC50 at 72 h", "setting": "[2]", "value": "130 ± 2", "unit": "µg/mL"}]}
